Laboratory results reported in BindingDB's records for doi:10.1038/nchembio753 (Stanford University School of Medicine, 2006).

Biological target: Sonic hedgehog protein (Mus musculus, UniProt Q62226)
Assay: Activation of Shh in mouse Shh Light2 cells after 30 hrs by luciferase reporter gene assay

Sonic hedgehog protein, sequence (Q62226 25-198 limits assumed): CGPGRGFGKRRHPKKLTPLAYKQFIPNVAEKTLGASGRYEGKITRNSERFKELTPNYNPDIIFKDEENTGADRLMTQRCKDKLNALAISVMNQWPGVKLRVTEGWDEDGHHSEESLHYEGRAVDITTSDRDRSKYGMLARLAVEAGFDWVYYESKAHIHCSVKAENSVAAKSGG

EC50: 1 µM
Compound: c1ccc2c(Oc3nc(Nc4ccc(N5CCOCC5)cc4)c4ncn(C5CCCCC5)c4n3)cccc2c1 [Purmorphamine]
